Assay results as given in patent publication US6861427B2, “Azabicyclylmethyl derivatives of 2,3-dihydro-1,4-dioxino[2,3-f]quinoline as 5-HT1A antagonists” (Wyeth, priority 2001, dated 2005).
Where a name gives a salt, the structure may show the parent alone.

Key:
human 5-HT1A receptors = target: T1, human 5-HT1A receptors (Homo sapiens, UniProt P08908); test: [3H] 8-OH-DPAT displacement from the 5-HT1A serotonin receptor (CHO cells); assay type: binding; conditions: displacement of [3H] 8-OH-DPAT, CHO cells stably transfected with human 5-HT1A receptors; read-out: 5-HT1A Receptor Affinity KI
T1 construct: expressed in transfected cells; host or cells: CHO cells
T1 sequence (P08908 1-422): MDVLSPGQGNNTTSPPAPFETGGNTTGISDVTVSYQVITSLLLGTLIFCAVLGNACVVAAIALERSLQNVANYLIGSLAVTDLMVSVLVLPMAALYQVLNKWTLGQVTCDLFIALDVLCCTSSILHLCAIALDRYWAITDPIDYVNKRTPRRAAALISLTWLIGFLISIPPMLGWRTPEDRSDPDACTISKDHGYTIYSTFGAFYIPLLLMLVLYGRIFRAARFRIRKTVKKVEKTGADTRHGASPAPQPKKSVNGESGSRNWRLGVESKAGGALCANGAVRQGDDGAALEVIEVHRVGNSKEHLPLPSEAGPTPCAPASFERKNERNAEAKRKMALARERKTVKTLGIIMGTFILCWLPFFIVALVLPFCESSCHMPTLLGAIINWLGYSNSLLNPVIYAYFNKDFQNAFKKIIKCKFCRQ
Description: High affinity for the serotonin 5-HT1A receptor was established by testing the claimed compound's ability to displace [^3H] 8-OH-DPAT (dipropylaminotetralin) from the 5-HT1A serotonin receptor following a modification of the procedure of Hall et al., J. Neurochem. 44, 1685 (1985) which utilizes CHO cells stably transfected with human 5-HT1A receptors.

[1] = target: T2, cloned human 5-HT1A receptors (Homo sapiens, UniProt P08908); test: 35S-GTPγS binding assay, antagonist activity versus 8-OH-DPAT; assay type: biochemical; conditions: reversal of 8-OH-DPAT-stimulated 35S-GTPγS binding; for IC50: membranes with cloned human 5-HT1A receptors, read-out: 5-HT1A Function IC50
T2 construct: expressed in transfected cells
T2 sequence (P08908 1-422): T1 sequence (P08908 1-422)
Procedure: Antagonist activity at 5-HT1A receptors was established by using a ^35S-GTPγS binding assay similar to that used by Lazareno and Birdsall (Br. J. Pharmacol. 109: 1120, 1993), in which the test compound's ability to affect the binding of ^35S-GTPγS to membranes containing cloned human 5-HT1A receptors was determined. Agonists produce an increase in binding whereas antagonists produce no increase but rather reverse the effects of the standard agonist 8-OH-DPAT. The test compound's maximum inhibitory effect is represented as the Imax, while its potency is defined by the IC50.

Row | SMILES | melting point [°C] | Ki (human 5-HT1A receptors) [nM] | 5-HT1A Function Imax (maximum inhibitory effect) [1] | IC50 [1] [nM]
1 | Cc1ccc2c3c(ccc2n1)OCC(CN1C2CCC1CC(O)(c1ccc4ccccc4c1)C2)O3 (stereo not shown) (as salt: fumarate) (hydrate or solvate) [Example 3, 8-{[8-Methyl-2,3-dihydro[1,4]dioxino[2,3-f]quinolin-2-yl}methyl]-3-(2-naphthyl)-8-azabicyclo[3.2.1]octan-3-ol] | 218 to 218.5 | – | – | –
2 | Cc1ccc2c3c(ccc2n1)OCC(CN1C2CCC1CC(O)(c1ccc4ccccc4c1)C2)O3 (stereo not shown) [Example 3, 8-{[8-Methyl-2,3-dihydro[1,4]dioxino[2,3-f]quinolin-2-yl}methyl]-3-(2-naphthyl)-8-azabicyclo[3.2.1]octan-3-ol] | – | 3.45 | (100) | 55.5
3 | Cc1ccc2c3c(ccc2n1)OCC(CN1C2CCC1CC(O)(c1ccccc1)C2)O3 (stereo not shown) [Example 1, 8-{[8-Methyl-2,3-dihydro[1,4]dioxino[2,3-f]quinolin-2-yl]methyl}-3-phenyl-8-azabicyclo[3.2.1]octan-3-ol] | 162 to 165 | 2.59 | (98.0) | 6.85
4 | Cc1ccc2c3c(ccc2n1)OCC(CN1C2CCC1CC(O)(c1cccc(C(F)(F)F)c1)C2)O3 (stereo not shown) [Example 2, 8-{[8-Methyl-2,3-dihydro[1,4]dioxino[2,3-f]quinolin-2-yl]methyl}-3-[3-(trifluoromethyl)phenyl]-8-azabicyclo[3.2.1]octan-3-ol] | – | 6.81 | – | –
5 | Cc1ccc2c3c(ccc2n1)OCC(CN1C2CCC1CC(O)(c1cccc(C(F)(F)F)c1)C2)O3 (stereo not shown) (as salt: fumarate) (hydrate or solvate) [Example 2, 8-{[8-Methyl-2,3-dihydro[1,4]dioxino[2,3-f]quinolin-2-yl]methyl}-3-[3-(trifluoromethyl)phenyl]-8-azabicyclo[3.2.1]octan-3-ol] | 146 to 150 | – | – | –
